Data taken from US20110039721A1, “METHOD FOR PREDICTION ABOUT CARCINOGENICITY OF SUBSTANCE IN RODENT” (Chemicals Evaluation and Research Institute, priority 2007, published 2011).

Experiments:
liver = conditions: classification of the substance (Cr+/Cr−); cited from earlier work
[1] = tested on: mRNA expressed from the genes (A) to (D) in rat liver; experiment: Behavior of genes (mRNA expression level, oligo-DNA microarray) in rat liver after 28-day oral administration; type: in vivo
Procedure, shortened: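 Groups of four male F344 SPF rats aged 5 weeks are gavaged once a day for 28 days with test chemical in solvent or with solvent alone at equal volume. Total RNA comes from liver taken on day 28. Fold change of 1.5 or 1/1.5 versus control, directionally consistent, defines significance.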

[2] = classification of the substance (M+/M−); cited from earlier work
rodent = conditions: classification of the substance (C+/C−); cited from earlier work
[3] = gene group (A), Unigene No. Rn.167075
[4] = gene group (C), Unigene No. Rn.120914

SMILES: CC1CCC(C(C)C)C(O)C1 (racemic) [TS034, DL-Menthol]
- Liver carcinogenicity (liver): Cr−
- Behavior of gene caused by administration of chemical substance, Gene No. 4846 ([1]; gene group (A), Unigene No. Rn.144554): −
- Behavior of gene caused by administration of chemical substance, Gene No. 2026 [1, 3]: +
- Behavior of gene caused by administration of chemical substance, Gene No. 4218 [1, 3]: −
- Behavior of gene caused by administration of chemical substance, Gene No. 6182 ([1]; gene group (A), Unigene No. Rn.5834): −
- Behavior of gene caused by administration of chemical substance, Gene No. 5600 ([1]; gene group (A), Unigene No. Rn.9836): −
- Behavior of gene caused by administration of chemical substance, Gene No. 1494 ([1]; gene group (B), Unigene No. Rn.1430): +
- Behavior of gene caused by administration of chemical substance, Gene No. 2045 ([1]; gene group (B), Unigene No. Rn.19329): +
- Behavior of gene caused by administration of chemical substance, Gene No. 2203 ([1]; gene group (B), Unigene No. Rn.21240): +
- Behavior of gene caused by administration of chemical substance, Gene No. 533 ([1]; gene group (C), Unigene No. Rn.106184): +
- Behavior of gene caused by administration of chemical substance, Gene No. 725 ([1]; gene group (C), Unigene No. Rn.108075): −
- Behavior of gene caused by administration of chemical substance, Gene No. 1163 ([1]; gene group (C), Unigene No. Rn.11766): −
- Behavior of gene caused by administration of chemical substance, Gene No. 4973 ([1]; gene group (C), Unigene No. Rn.118529): −
- Behavior of gene caused by administration of chemical substance, Gene No. 4095 ([1]; gene group (C), Unigene No. Rn.119024): −
- Behavior of gene caused by administration of chemical substance, Gene No. 1334 [1, 4]: −
- Behavior of gene caused by administration of chemical substance, Gene No. 6620 [1, 4]: −
- Behavior of gene caused by administration of chemical substance, Gene No. 6303 ([1]; gene group (C), Unigene No. Rn.123063): +
- Behavior of gene caused by administration of chemical substance, Gene No. 5878 ([1]; gene group (C), Unigene No. Rn.143213): −
- Behavior of gene caused by administration of chemical substance, Gene No. 1131 ([1]; gene group (C), Unigene No. Rn.144946): −
- Behavior of gene caused by administration of chemical substance, Gene No. 1562 ([1]; gene group (C), Unigene No. Rn.14744): −
- Behavior of gene caused by administration of chemical substance, Gene No. 1741 ([1]; gene group (C), Unigene No. Rn.1647): −
- Behavior of gene caused by administration of chemical substance, Gene No. 893 ([1]; gene group (C), Unigene No. Rn.164817): −
- Behavior of gene caused by administration of chemical substance, Gene No. 6026 ([1]; gene group (C), Unigene No. Rn.167685): −
- Behavior of gene caused by administration of chemical substance, Gene No. 154 ([1]; gene group (C), Unigene No. Rn.185941): +
- Behavior of gene caused by administration of chemical substance, Gene No. 1993 ([1]; gene group (C), Unigene No. Rn.18728): −
- Behavior of gene caused by administration of chemical substance, Gene No. 813 ([1]; gene group (C), Unigene No. Rn.201760): −
- Behavior of gene caused by administration of chemical substance, Gene No. 2494 ([1]; gene group (C), Unigene No. Rn.23969): −
- Behavior of gene caused by administration of chemical substance, Gene No. 2546 ([1]; gene group (C), Unigene No. Rn.24561): −
- Behavior of gene caused by administration of chemical substance, Gene No. 3776 ([1]; gene group (C), Unigene No. Rn.43232): −
- Behavior of gene caused by administration of chemical substance, Gene No. 3929 ([1]; gene group (C), Unigene No. Rn.4620): −
- Behavior of gene caused by administration of chemical substance, Gene No. 1119 ([1]; gene group (C), Unigene No. Rn.9757): −
- Behavior of gene caused by administration of chemical substance, Gene No. 6742 ([1]; gene group (C), Unigene No. Rn.9779): −
- Behavior of gene caused by administration of chemical substance, Gene No. 5634 ([1]; gene group (C), Unigene No. Rn.9862): −
- Behavior of gene caused by administration of chemical substance, Gene No. 5726 ([1]; gene group (D), Unigene No. Rn.9939): −
- Mutagenicity by Ames test [2]: M−
- Carcinogenicity (rodent): C−
